From patent US20250146012A1 (priority 2011, published 2025)
Read-outs that look alike come from different tables or passages of the source.

Tests used:
[1] = system: plants comprising the MON 88701 event; assay type: in vivo, Gossypium hirsutum
Method: In year 3, efficacy field testing of event MON 88701 was conducted to study the rate and timing of application of dicamba and/or glufosinate. […] The treatment and application timing are detailed in Table 2. […] The sprayer protocol was as described for year 2 efficacy field testing. Stand rating, visual injury rating (percent epinasty, percent necrosis), plant height and node number, 50-boll sampling, and yield determinations were as described for agronomic and efficacy field testing above.

[2] = system: wild-type cotton (Coker 130); test: Year 2 efficacy field trial, wild-type plots; assay type: in vivo, Gossypium hirsutum; conditions: 1× rate (0.5 lb/A), half plot each herbicide, at one post-emergence timing (Early, Mid, Late)
Method: In year 2, efficacy testing was conducted with twelve events compared to non-transgenic, wild-type Coker 130. For this testing, paired plots were either sprayed or not sprayed. The plots were maintained weed-and insect-free using conventional control programs for the duration of the trial. For the plots that were sprayed, the following treatment applications were conducted (1) 0.5 lb/A dicamba applied PRE, Early POST, Mid POST and Late POST; (2) 1 lb/A dicamba applied PRE, Early POST, Mid POST and Late POST; (3) 2 lb/A dicamba applied PRE, Early POST, Mid POST and Late POST; (4) 0.5 lb/A glufosinate applied Early POST, Mid POST and Late POST: (5) 1 lb/A glufosinate applied Early POST, Mid POST and Late POST: 6) 2 lb/A glufosinate applied Early POST, Mid POST and Late POST; and 7) Control (unsprayed). Preemergence (PRE) is defined as immediately after cotton planting (within 24 hours); Early POST as 2-node cotton; Mid POST as 8-node cotton; and Late POST as 14 node cotton. […]
At each rating time, the following observations were recorded: 1) percent necrosis or burn on the most affected leaves; 2) percent necrosis or burn on a whole-plant basis; 3) epinasty; and 4) any other relevant injury that was observed. […] Plots were harvested and recorded as lbs/plot of seedcotton and expressed as lb/acre of seedcotton.

[3] = system: transgenic cotton events (eight events)
Method: (§1) In year 1, efficacy testing was conducted with eight events compared to non-transgenic, wild-type Coker 130. For this testing, paired plots were sprayed with dicamba (Clarity®, BASF, Research Triangle Park, NC) and glufosinate (Ignite®, Bayer CropScience, Research Triangle Park, NC) or left unsprayed. The plots were maintained weed-and insect-free using conventional control programs for the duration of the trial. […] For plots that were sprayed, the following applications were conducted: dicamba was applied preemergence at 1 lb/A followed by glufosinate applied 1.09lb/A at the 2 node stage, followed by dicamba applied at 1 lb/A at the 5 node stage, followed by glufosinate applied 1.09 lb/A at the 8 node stage, followed by dicamba applied at 1 lb/A at the 12 node stage. Neither dicamba nor glufosinate were applied with surfactants, fertilizer additive, or other adjuvant. […] Plots were harvested and yield recorded as lbs/plot of seed cotton and expressed as lb/acre of seed cotton. […]

[4] = system: non-transgenic, wild-type Coker 130; test: Year 1 efficacy field trial, wild-type control; assay type: in vivo, Gossypium hirsutum; conditions: sequential regimen: dicamba 1 lb/A preemergence, 5 node, 12 node; glufosinate 1.09 lb/A at 2 node and 8 node; FIG. 7
Method: as §1

[5] = system: plants comprising the MON 88701 event
Method: In year 2, efficacy testing was conducted with twelve events compared to non-transgenic, wild-type Coker 130. For this testing, paired plots were either sprayed or not sprayed. The plots were maintained weed-and insect-free using conventional control programs for the duration of the trial. For the plots that were sprayed, the following treatment applications were conducted (1) 0.5 lb/A dicamba applied PRE, Early POST, Mid POST and Late POST; (2) 1 lb/A dicamba applied PRE, Early POST, Mid POST and Late POST; (3) 2 lb/A dicamba applied PRE, Early POST, Mid POST and Late POST; (4) 0.5 lb/A glufosinate applied Early POST, Mid POST and Late POST: (5) 1 lb/A glufosinate applied Early POST, Mid POST and Late POST: 6) 2 lb/A glufosinate applied Early POST, Mid POST and Late POST; and 7) Control (unsprayed). Preemergence (PRE) is defined as immediately after cotton planting (within 24 hours); Early POST as 2-node cotton; Mid POST as 8-node cotton; and Late POST as 14 node cotton. For these efficacy field trials, there were three plots composed entirely of wild-type cotton (Coker 130). At each post-emergence timing (Early, Mid, Late), one-half of a plot was sprayed with the 1× rate (0.5 lb/A) of dicamba and one-half of the same plot was sprayed with the 1× rate (0.5 lb/A) of glufosinate. Each of the three plots received dicamba and glufosinate spray at one of the post-emergence timing spray applications (Early, Mid, Late).
XR TeeJet® extended range flat spray tips with an 80-degree spray angle were used (TeeJet Technologies, Wheaton, IL). There were 2 nozzles per row (nozzles spaced at 15″ for 30″ rows, 19″ for 38″ rows and 20″ for 40″ rows). Nozzle size depended on sprayer speed and nozzle spacing; however, nozzle size was selected to result in a spray pressure of 25 to 35 PSI. Boom height was adjusted to allow for 50% spray overlap (which occurs at roughly 30″ above the top of the crop).
At each rating time, the following observations were recorded: 1) percent necrosis or burn on the most affected leaves; 2) percent necrosis or burn on a whole-plant basis; 3) epinasty; and 4) any other relevant injury that was observed. Ratings were taken four days after each application and immediately prior to subsequent applications. […] Plots were harvested and recorded as lbs/plot of seedcotton and expressed as lb/acre of seedcotton.

| Compound | yield of seedcotton ([1]; in vivo) | survival of herbicide spray [2] | yield of seed cotton, paired sprayed and unsprayed events compared to unsprayed wild-type Coker 130 ([3]; in vivo) | survival of the spray regimen [4] | injury rating with increasing application rates of dicamba ([5]; in vivo) | yield of seedcotton with increasing application rates of dicamba ([5]; in vivo) | yield of seedcotton ([1]; all other treatment regimens of Table 2 (0.25-1 lb ai/A, four timings), FIG. 6) | yield of seed cotton, paired sprayed and unsprayed events compared to unsprayed wild-type Coker 130 ([3]; sequential regimen: dicamba 1 lb/A preemergence, 5 node, 12 node, glufosinate 1.09 lb/A at 2 node and 8 node, FIG. 3) | injury rating with increasing application rates of glufosinate ([5]; 0.5, 1, 2 lb/A glufosinate Early, Mid, Late POST, FIG. 5.B) | yield of seedcotton with increasing application rates of glufosinate ([5]; 0.5, 1, 2 lb/A glufosinate applied Early POST, Mid POST and Late POST, FIG. 4.B) |
| --- | --- | --- | --- | --- | --- | --- | --- | --- | --- | --- |
| COc1c(Cl)ccc(Cl)c1C(=O)O [dicamba, 3,6-dichloro-2-methoxybenzoic acid] | no yield loss | did not survive | no significant difference | did not survive | increased percentage of injury | nearly equivalent |  |  |  |  |
| 2-amino-4-(hydroxymethylphosphinyl)butanoic acid [glufosinate] |  | did not survive |  | did not survive |  |  | no yield loss | no significant difference | increased percentage of injury | nearly equivalent |
